The test system of this assay is rat glima cells (C6). As to the kind of experiment: Cytotoxicity test (WST-8). The format is cell-based. Conditions: 48 hours culture with boron agent, WST-8 absorbance at 450 nm. As to the method:
Using a 96-well microplate, rat glima cells (C6) were seeded at a density of 1.5×10^4 cells/ml per well and then cultured at room temperature (37° C., 5% CO2) for 16 hours. The culture fluid was taken out by suction and the culture fluids containing boron agents at various concentrations obtained in the Examples were added to respective wells in an amount of […] each. After culturing at room temperature (37° C., 5% CO2) for 48 hours, the culture fluid was taken out by suction, […] portions of WST-8 solution were added respectively, and culture was further carried out at room temperature (37° C., 5% CO2) for 4 hours. Using a microplate reader, the absorbance at a wavelength of 450 nm (reference wavelength: 655 nm) was measured and the absorbance of wells not containing cells was employed as background control, to determine each IC50 value.

For “1-amino-4-[(undecahydrododecaboranyl-thio)methyl]cyclohexanone-1-carboxylic acid disodium salt [cis-ACHC-BSH]”, the IC50 is < 300 µM.
As to `N[C@@H](Cc1ccc(B(O)O)cc1)C(=O)O` [L-BPA, 4-borono-L-phenylalanine, reference compound], where the note is “Rattus norvegicus”, the IC50 was > 2000 µM.
“cis-1-amino-3-(dodecaboranylthiomethyl)cyclobutanecarboxylic acid trisodium salt [cis-ACBC-BSH]” had an IC50 of 2500 µM.
In turn, “trans-1-amino-3-(dodecaboranylthiomethyl)cyclobutane-carboxylic acid trisodium salt [trans-ACBC-BSH]” gave an IC50 of 2100 µM.

As a reminder, the IC50 is the point on the concentration scale where inhibition reaches its midpoint.
